Key:
[1] = molecular target: T1, 5-hydroxytryptamine receptor 1A (Homo sapiens) (UniProt P08908); assay: Agonist activity at human recombinant 5HT1A receptor expressed in human HeLa cells by [35S]GTPgammaS binding assay relative to serotonin; type: functional, cell-based
T1 sequence (whole entry): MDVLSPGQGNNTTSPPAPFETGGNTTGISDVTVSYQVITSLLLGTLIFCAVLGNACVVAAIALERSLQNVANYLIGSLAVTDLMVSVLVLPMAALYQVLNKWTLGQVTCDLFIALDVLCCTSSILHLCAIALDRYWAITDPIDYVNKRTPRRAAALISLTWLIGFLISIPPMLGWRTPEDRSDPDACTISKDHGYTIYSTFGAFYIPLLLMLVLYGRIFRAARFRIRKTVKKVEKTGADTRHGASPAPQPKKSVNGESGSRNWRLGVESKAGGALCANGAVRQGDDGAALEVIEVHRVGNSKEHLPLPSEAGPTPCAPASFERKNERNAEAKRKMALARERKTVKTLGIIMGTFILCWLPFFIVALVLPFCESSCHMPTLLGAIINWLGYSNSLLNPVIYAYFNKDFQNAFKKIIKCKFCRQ

[2] = molecular target: T1, 5-hydroxytryptamine receptor 1A (Homo sapiens); assay: Agonist activity at human recombinant 5HT1A receptor expressed in human HeLa cells by [35S]GTPgammaS binding assay; type: functional, cell-based
Spleen = assay: Inhibition of noradrenaline-induced contraction in rat spleen; type: functional
Homo sapiens = organism: Homo sapiens; assay: Selectivity ratio of pKi for human 5-HT1A receptor to pKi for human alpha1 adrenergic receptor
Thoracic aorta = assay: Inhibition of noradrenaline-induced contraction in rat thoracic aorta; type: functional
Vas deferens = assay: Inhibition of noradrenaline-induced contraction in rat prostatic vas deferens; type: functional
[3] = molecular target: T2, Alpha-1B adrenergic receptor (Homo sapiens, UniProt P35368); assay: Displacement of [3H]prazosin from human Alpha-1B adrenergic receptor expressed in CHO cells; type: cell-based
T2 sequence (P35368 whole entry): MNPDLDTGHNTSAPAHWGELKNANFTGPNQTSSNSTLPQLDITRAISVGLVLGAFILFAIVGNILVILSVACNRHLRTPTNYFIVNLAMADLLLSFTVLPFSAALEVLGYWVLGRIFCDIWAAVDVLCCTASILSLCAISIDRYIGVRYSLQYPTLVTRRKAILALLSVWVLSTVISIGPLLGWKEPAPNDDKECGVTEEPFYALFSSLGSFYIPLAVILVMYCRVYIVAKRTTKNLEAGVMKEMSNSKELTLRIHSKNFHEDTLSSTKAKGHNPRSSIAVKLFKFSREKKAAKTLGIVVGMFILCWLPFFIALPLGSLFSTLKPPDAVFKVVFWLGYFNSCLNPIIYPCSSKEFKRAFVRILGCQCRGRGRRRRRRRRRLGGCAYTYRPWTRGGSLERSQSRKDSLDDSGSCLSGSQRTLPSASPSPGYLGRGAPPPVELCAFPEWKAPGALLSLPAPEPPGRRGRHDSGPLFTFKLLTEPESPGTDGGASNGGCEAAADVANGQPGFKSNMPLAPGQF

[4] = molecular target: T3, 5-hydroxytryptamine receptor 1A (Homo sapiens, UniProt P08908); assay: Displacement of [3H]8-OH-DPAT from human 5-HT1A receptor expressed in human HeLa cells; type: cell-based
T3 sequence (P08908 whole entry): T1 sequence (whole entry)

[5] = molecular target: T4, Alpha-1A adrenergic receptor (Homo sapiens, UniProt P35348); assay: Displacement of [3H]prazosin from human alpha1A adrenergic receptor expressed in CHO cells; type: cell-based
T4 sequence (P35348 whole entry): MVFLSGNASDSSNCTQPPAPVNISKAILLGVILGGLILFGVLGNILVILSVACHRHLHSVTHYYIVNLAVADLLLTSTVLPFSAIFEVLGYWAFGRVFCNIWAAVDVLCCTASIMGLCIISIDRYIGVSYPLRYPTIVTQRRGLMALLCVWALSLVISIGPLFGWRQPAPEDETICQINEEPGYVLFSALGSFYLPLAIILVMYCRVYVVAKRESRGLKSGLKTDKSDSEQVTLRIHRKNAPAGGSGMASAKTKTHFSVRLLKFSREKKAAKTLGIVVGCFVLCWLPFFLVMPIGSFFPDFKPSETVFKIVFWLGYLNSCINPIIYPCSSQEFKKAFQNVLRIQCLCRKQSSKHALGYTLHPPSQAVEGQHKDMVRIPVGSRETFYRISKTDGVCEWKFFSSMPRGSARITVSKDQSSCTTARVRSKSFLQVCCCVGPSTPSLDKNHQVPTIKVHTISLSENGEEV

[6] = molecular target: T5, Alpha-1D adrenergic receptor (Homo sapiens, UniProt P25100); assay: Displacement of [3H]prazosin from human Alpha-1D adrenergic receptor expressed in CHO cells; type: cell-based
T5 sequence (P25100 whole entry): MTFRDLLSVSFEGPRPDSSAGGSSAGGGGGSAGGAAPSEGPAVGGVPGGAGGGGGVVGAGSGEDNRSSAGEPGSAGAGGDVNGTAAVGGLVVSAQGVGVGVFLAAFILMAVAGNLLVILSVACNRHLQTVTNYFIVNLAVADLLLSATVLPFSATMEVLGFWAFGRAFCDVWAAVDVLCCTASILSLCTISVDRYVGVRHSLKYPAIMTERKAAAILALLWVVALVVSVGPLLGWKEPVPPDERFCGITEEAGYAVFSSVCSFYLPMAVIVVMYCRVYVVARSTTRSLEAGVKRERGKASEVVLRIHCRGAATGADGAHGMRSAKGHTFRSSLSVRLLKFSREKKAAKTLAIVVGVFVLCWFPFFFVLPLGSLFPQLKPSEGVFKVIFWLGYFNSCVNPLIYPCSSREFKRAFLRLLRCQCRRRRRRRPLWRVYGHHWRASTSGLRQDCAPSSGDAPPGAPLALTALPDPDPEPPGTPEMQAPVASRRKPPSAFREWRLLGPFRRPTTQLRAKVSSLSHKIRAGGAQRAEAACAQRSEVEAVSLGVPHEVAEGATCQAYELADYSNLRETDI

COc1ccccc1N1CCN(CCN2C(=O)CC3(CCCC3)CC2=O)CC1 [BMY-7378]
Emax [1]: 26% | pD2 [2]: 9.27 | pKb (Spleen): 7.48

COc1ccccc1OCCNCC1COC(c2ccccc2)(c2ccccc2)O1 (racemic)
Emax [1]: 32% | Ratio pKi (Homo sapiens): 15 | pKb (Thoracic aorta): 8.65 | pKb (Vas deferens): 7.53 | pD2 [2]: 7.36 | Ki [3]: 46.8 nM | pKb (Spleen): 7.36 | Ki [4]: 0.603 nM | Ki [5]: 19.5 nM

c1ccc(-c2cccc(OCCNCC3COC(c4ccccc4)(c4ccccc4)O3)c2)cc1 (racemic)
Ratio pKi (Homo sapiens): > 35 | pKb (Thoracic aorta): <5 | pKb (Vas deferens): 5.19 | Ki [6]: > 1000 nM | Ki [3]: > 1000 nM | pKb (Spleen): 6.21 | Ki [4]: 28.8 nM | Ki [5]: > 1000 nM

CCCN(CCC)C1CCc2cccc(O)c2C1 (stereo not drawn) [8-OH-DPAT]
Ki [3]: > 1000 nM

COc1ccccc1OCCNCC1CSC(c2ccccc2)(c2ccccc2)O1 (racemic)
Emax [1]: 76% | Ratio pKi (Homo sapiens): 6 | pKb (Thoracic aorta): 8.68 | pKb (Vas deferens): 6.71 | pD2 [2]: 8.94 | Ki [6]: 6.61 nM | Ki [3]: 100 nM | pKb (Spleen): 8.44 | Ki [4]: 1.02 nM | Ki [5]: 20.9 nM

COc1cccc(OCCNCC2COC(c3ccccc3)(c3ccccc3)O2)c1OC (racemic)
Ratio pKi (Homo sapiens): 11 | pKb (Thoracic aorta): 6.64 | pKb (Vas deferens): 5.86 | Ki [6]: 355 nM | Ki [3]: 174 nM | pKb (Spleen): 5.85 | Ki [4]: 7.59 nM | Ki [5]: 85.1 nM

CCOc1ccccc1OCCNCC1COC(c2ccccc2)(c2ccccc2)O1 (racemic)
Emax [1]: 36% | Ratio pKi (Homo sapiens): 7 | pKb (Thoracic aorta): 7.91 | pKb (Vas deferens): 7.23 | pD2 [2]: 9.08 | Ki [6]: 6.76 nM | Ki [3]: 53.7 nM | pKb (Spleen): 6.92 | Ki [4]: 0.891 nM | Ki [5]: 6.61 nM

COc1cccc(OC)c1OCCNCC1COC(c2ccccc2)(c2ccccc2)O1 (racemic)
Ratio pKi (Homo sapiens): 14 | pKb (Thoracic aorta): 6.93 | pKb (Vas deferens): 5.73 | Ki [6]: 182 nM | Ki [3]: 75.9 nM | pKb (Spleen): 5.89 | Ki [4]: 53.7 nM | Ki [5]: 100 nM

COc1ccc(OCCNCC2COC(c3ccccc3)(c3ccccc3)O2)cc1OC (racemic)
Ratio pKi (Homo sapiens): 1.4 | pKb (Thoracic aorta): 6.9 | pKb (Vas deferens): 5.09 | Ki [6]: > 1000 nM | Ki [3]: 138 nM | pKb (Spleen): 6.01 | Ki [4]: 97.7 nM | Ki [5]: > 1000 nM

Cc1ccccc1OCCNCC1COC(c2ccccc2)(c2ccccc2)O1 (racemic)
Ratio pKi (Homo sapiens): 3 | pKb (Thoracic aorta): 6.77 | pKb (Vas deferens): 6.02 | Ki [6]: 25.7 nM | Ki [3]: 240 nM | pKb (Spleen): 5.73 | Ki [4]: 8.32 nM | Ki [5]: 117 nM

COc1ccccc1CCCNCC1COC(c2ccccc2)(c2ccccc2)O1 (racemic)
Emax [1]: 14% | Ratio pKi (Homo sapiens): 6 | pKb (Thoracic aorta): 6.86 | pKb (Vas deferens): 5.92 | pD2 [2]: 5.92 | Ki [6]: 50.1 nM | Ki [3]: 41.7 nM | pKb (Spleen): 5.97 | Ki [4]: 7.94 nM | Ki [5]: 49 nM

COc1ccccc1OCCNCC1CSC(c2ccccc2)(c2ccccc2)S1 (racemic)
Emax [1]: 20% | Ratio pKi (Homo sapiens): 158 | pKb (Thoracic aorta): 7.5 | pKb (Vas deferens): 5.8 | pD2 [2]: 7.76 | Ki [6]: 20.4 nM | Ki [3]: 117 nM | pKb (Spleen): 5.87 | Ki [4]: 0.129 nM | Ki [5]: 35.5 nM

COc1cccc(OCCNCC2COC(c3ccccc3)(c3ccccc3)O2)c1 (racemic)
Emax [1]: 14% | Ratio pKi (Homo sapiens): 22 | pKb (Thoracic aorta): 6.61 | pKb (Vas deferens): 5.75 | pD2 [2]: 5.97 | Ki [6]: 57.5 nM | Ki [3]: 58.9 nM | pKb (Spleen): 5.79 | Ki [4]: 2.63 nM | Ki [5]: 91.2 nM

CC(C)Oc1ccccc1OCCNCC1COC(c2ccccc2)(c2ccccc2)O1 (racemic)
Emax [1]: 25% | Ratio pKi (Homo sapiens): 1 | pKb (Thoracic aorta): 7.59 | pKb (Vas deferens): 7.25 | pD2 [2]: 9.08 | Ki [6]: 6.31 nM | Ki [3]: 20 nM | pKb (Spleen): 7.25 | Ki [4]: 1.7 nM | Ki [5]: 2.09 nM

COc1cc(OC)cc(OCCNCC2COC(c3ccccc3)(c3ccccc3)O2)c1 (racemic)
Ratio pKi (Homo sapiens): 0.2 | pKb (Thoracic aorta): 6.77 | pKb (Vas deferens): 5.41 | Ki [6]: > 1000 nM | Ki [3]: 447 nM | pKb (Spleen): 5.49 | Ki [4]: > 1000 nM | Ki [5]: 302 nM

c1ccc(OCCNCC2COC(c3ccccc3)(c3ccccc3)O2)cc1 (racemic)
Emax [1]: 24% | Ratio pKi (Homo sapiens): 3 | pKb (Thoracic aorta): 8.37 | pKb (Vas deferens): 6.16 | pD2 [2]: 8.8 | pKb (Spleen): 5.86 | Ki [4]: 3.55 nM

COc1ccc(OCCNCC2COC(c3ccccc3)(c3ccccc3)O2)cc1 (racemic)
pKb (Thoracic aorta): 6.94 | pKb (Vas deferens): <5 | pKb (Spleen): 6.25

c1ccc(-c2ccc(OCCNCC3COC(c4ccccc4)(c4ccccc4)O3)cc2)cc1 (racemic)
pKb (Thoracic aorta): 5.08 | pKb (Vas deferens): 5.65 | Ki [6]: > 1000 nM | Ki [3]: > 1000 nM | pKb (Spleen): 5.84 | Ki [4]: > 1000 nM | Ki [5]: > 1000 nM

c1ccc(-c2ccccc2OCCNCC2COC(c3ccccc3)(c3ccccc3)O2)cc1 (racemic)
Emax [1]: 73% | Ratio pKi (Homo sapiens): 151 | pKb (Thoracic aorta): 6.1 | pKb (Vas deferens): <5 | pD2 [2]: 7.82 | Ki [6]: 331 nM | Ki [3]: > 1000 nM | pKb (Spleen): 5.47 | Ki [4]: 2.19 nM | Ki [5]: 490 nM
